# Calls of active or inactive are those of the source.
# Legend:
# [1] = molecular target: Dual specificity protein phosphatase 3 (Homo sapiens, UniProt P51452); assay: VHR phosphatase inhibition, dose response, selectivity assay for STEP inhibitor project, biochemical (AID 602374); type: functional; details: read-out: IC50_Mean
# [2] = molecular target: Arf-GAP with SH3 domain, ANK repeat and PH domain-containing protein 1 (Homo sapiens, UniProt Q9ULH1); type: functional;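 note: biochemical fluorescence polarization dose–response screen measuring inhibition of ASAP1; ASAP1 GAP domain stimulating GTP hydrolysis by truncated human ARF1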
# Arf-GAP with SH3 domain, ANK repeat and PH domain-containing protein 1, sequence (Q9ULH1 whole entry, the tested form may be a part): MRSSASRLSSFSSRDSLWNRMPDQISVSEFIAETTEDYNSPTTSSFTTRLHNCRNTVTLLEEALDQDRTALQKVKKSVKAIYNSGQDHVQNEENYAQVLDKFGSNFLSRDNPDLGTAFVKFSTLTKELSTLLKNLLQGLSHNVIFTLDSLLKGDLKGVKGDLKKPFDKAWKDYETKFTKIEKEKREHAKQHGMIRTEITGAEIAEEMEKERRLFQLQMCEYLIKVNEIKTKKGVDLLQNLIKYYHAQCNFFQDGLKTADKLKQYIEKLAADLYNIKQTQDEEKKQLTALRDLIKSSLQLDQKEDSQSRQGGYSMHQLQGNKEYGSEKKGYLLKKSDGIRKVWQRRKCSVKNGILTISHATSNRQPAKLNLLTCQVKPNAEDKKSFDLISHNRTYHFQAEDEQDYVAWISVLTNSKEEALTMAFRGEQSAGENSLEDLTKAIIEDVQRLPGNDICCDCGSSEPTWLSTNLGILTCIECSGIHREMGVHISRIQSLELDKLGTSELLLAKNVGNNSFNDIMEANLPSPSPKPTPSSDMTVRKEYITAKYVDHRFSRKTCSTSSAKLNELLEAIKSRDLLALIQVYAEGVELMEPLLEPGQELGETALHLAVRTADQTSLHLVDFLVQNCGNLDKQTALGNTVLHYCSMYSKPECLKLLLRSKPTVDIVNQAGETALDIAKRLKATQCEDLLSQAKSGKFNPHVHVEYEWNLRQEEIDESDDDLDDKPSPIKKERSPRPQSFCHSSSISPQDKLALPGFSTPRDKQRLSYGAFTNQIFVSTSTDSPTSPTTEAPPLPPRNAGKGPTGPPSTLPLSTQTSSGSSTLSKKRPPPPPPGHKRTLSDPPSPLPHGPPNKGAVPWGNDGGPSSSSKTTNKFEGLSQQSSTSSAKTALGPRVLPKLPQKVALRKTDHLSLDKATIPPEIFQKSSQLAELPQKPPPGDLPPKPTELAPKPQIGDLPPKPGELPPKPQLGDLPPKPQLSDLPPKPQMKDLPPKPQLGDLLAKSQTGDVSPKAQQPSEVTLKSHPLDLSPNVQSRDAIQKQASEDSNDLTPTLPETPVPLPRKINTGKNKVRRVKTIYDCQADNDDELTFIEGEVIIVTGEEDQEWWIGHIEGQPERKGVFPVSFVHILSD
# [3] = molecular target: Tyrosine-protein phosphatase non-receptor type 11 (Homo sapiens, UniProt Q06124); assay: SHP2 phosphatase inhibition, dose response, selectivity assay for STEP inhibitor project, biochemical (AID 602367); type: functional; details: read-out: IC50_Mean
# Tyrosine-protein phosphatase non-receptor type 11, sequence (Q06124 whole entry): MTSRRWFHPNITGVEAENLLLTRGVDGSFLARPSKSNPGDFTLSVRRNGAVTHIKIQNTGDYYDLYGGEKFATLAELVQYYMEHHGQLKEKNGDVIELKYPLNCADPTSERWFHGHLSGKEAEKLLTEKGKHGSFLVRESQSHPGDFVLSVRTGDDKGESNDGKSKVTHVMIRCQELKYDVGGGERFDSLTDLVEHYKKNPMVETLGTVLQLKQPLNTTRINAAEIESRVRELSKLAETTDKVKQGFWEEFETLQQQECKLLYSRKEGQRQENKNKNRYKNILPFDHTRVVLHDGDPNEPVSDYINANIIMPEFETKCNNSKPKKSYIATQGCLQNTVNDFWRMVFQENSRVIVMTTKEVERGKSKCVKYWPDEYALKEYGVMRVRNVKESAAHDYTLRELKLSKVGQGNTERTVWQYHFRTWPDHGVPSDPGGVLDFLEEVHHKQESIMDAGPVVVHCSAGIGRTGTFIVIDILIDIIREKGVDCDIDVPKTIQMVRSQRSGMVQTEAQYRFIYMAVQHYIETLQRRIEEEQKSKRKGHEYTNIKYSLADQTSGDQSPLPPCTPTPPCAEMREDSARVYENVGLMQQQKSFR
# [4] = molecular target: Tyrosine-protein phosphatase non-receptor type 5 (Homo sapiens, UniProt P54829); assay: STEP phosphatase inhibitors, confirmation, biochemical, fluorescence intensity, uHTS hits (AID 602372); type: functional; details: read-out: IC50_Mean
# Tyrosine-protein phosphatase non-receptor type 5, sequence (P54829 whole entry): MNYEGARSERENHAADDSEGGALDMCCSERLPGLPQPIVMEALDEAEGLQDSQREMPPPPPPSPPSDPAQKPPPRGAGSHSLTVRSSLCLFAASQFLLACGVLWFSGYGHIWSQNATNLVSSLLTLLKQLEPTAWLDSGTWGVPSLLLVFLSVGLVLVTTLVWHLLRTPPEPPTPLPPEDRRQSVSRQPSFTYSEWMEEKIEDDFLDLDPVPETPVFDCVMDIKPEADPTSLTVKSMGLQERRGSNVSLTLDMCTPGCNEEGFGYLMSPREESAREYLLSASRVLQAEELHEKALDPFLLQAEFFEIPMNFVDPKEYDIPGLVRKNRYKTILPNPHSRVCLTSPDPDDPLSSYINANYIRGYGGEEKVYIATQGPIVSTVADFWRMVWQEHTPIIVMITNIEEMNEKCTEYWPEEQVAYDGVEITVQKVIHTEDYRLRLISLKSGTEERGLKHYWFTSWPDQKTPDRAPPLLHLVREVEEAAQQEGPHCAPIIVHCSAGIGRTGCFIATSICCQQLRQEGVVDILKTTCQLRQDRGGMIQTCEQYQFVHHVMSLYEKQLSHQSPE
# [5] = molecular target: T1, Sentrin-specific protease 8 (Homo sapiens, UniProt Q96LD8); type: functional
# T1 sequence (Q96LD8 whole entry): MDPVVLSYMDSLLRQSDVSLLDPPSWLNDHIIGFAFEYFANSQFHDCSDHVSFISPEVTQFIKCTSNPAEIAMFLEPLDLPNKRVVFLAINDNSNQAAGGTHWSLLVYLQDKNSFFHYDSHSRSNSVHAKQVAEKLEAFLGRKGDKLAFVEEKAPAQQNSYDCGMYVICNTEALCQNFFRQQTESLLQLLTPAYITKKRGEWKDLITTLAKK
# [6] = molecular target: T2, Replicative DNA helicase DnaB (Mycobacterium tuberculosis, UniProt P9WMR3); assay: DnaB intein splicing inhibitors, dose response, biochemical, cell-free fluorescence (AID 449749); type: functional
# T2 sequence (P9WMR3 whole entry): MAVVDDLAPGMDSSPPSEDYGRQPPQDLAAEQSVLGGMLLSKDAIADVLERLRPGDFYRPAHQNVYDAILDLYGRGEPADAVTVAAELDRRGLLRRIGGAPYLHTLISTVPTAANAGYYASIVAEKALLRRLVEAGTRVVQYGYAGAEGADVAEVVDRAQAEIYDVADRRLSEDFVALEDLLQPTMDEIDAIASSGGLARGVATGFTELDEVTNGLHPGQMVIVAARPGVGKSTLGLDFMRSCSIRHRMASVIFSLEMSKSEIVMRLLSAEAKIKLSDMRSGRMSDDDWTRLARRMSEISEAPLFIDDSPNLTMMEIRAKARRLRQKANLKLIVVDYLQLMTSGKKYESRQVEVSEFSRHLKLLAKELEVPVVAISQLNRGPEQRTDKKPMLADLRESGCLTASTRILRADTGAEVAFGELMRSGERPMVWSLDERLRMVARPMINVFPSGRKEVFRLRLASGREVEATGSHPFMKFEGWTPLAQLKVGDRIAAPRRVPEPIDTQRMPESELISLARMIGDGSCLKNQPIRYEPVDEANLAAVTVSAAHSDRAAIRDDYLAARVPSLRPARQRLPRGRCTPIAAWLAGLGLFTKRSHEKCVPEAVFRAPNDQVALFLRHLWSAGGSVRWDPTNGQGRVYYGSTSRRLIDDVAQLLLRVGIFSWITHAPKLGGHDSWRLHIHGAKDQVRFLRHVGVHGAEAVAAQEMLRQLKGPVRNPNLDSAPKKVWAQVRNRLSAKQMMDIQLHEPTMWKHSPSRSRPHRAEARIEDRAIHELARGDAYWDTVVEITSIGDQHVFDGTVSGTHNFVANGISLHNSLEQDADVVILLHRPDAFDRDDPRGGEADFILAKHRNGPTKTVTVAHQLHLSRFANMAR
# Protein RecA = molecular target: T3, Protein RecA (Mycobacterium tuberculosis, UniProt P9WHJ3); assay: Fluorescence Cell-Free Homogeneous Dose Retest to Identify Inhibitors of RecA-Intein Splicing Activity. [Related pubchem assays (depositor defined):AID2097, AID2223, AID489010, AID492950]; type: functional
# T3 sequence (P9WHJ3 whole entry): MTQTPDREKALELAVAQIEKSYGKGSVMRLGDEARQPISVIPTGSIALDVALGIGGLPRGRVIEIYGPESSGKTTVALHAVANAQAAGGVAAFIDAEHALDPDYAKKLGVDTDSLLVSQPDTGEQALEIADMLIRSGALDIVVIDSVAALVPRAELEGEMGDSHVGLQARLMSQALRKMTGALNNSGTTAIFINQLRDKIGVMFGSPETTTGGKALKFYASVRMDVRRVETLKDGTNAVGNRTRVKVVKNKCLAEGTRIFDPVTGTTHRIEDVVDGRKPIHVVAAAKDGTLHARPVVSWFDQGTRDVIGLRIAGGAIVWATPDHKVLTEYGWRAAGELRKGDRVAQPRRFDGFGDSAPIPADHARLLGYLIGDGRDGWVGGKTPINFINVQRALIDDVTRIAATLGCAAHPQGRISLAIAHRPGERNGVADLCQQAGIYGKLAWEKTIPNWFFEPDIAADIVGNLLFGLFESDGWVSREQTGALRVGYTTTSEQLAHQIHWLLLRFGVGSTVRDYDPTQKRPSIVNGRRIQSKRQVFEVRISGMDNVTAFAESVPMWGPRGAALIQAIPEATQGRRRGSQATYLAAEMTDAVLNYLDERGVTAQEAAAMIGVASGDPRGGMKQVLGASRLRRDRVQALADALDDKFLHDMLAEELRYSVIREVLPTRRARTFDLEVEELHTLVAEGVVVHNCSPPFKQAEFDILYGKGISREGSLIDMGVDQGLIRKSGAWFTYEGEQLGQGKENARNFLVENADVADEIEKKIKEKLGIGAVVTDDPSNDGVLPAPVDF
# [7] = molecular target: T1, Sentrin-specific protease 8; type: functional; remark: listed apart in the source
# Paired box protein Pax-8 = Paired box protein Pax-8 (Homo sapiens, UniProt Q06710); assay: inhibitors of PAX8-driven TPO luciferase reporter, dose response, RMG-I cells, cherry-pick (AID 687027); type: functional, cell-based;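 note: luciferase reporter driven by Pax8 target thyroperoxidase promoter measured by SteadyGlo luminescence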
# Paired box protein Pax-8, sequence (Q06710 whole entry): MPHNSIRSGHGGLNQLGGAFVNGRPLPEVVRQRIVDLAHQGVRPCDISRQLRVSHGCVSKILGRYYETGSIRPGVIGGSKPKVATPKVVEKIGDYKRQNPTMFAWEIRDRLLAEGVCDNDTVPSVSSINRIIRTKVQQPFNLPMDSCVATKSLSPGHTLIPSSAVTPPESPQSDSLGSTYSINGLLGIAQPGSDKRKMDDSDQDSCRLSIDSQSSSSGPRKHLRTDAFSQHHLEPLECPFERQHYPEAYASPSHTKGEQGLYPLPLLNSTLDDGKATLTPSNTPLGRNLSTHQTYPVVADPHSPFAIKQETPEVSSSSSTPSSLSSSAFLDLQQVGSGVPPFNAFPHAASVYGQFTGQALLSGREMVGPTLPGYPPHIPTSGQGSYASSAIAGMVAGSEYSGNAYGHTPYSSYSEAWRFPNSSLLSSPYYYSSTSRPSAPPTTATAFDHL
# [8] = non-specific cell cytotoxicity, dose response, cytotoxicity control for PAX8 inhibitor project, plate reader, dry powder samples (AID 743021); type: functional, cell-based
# Beta-lactamase [9] = molecular target: T4, Beta-lactamase (Pseudomonas aeruginosa, UniProt Q79MP6); assay: […] counterscreen for selective VIM-2 inhibitors: dose response biochemical high throughput screening assay to identify inhibitors of IMP-1 metallo-beta-lactamase.
# T4 sequence (Q79MP6 whole entry): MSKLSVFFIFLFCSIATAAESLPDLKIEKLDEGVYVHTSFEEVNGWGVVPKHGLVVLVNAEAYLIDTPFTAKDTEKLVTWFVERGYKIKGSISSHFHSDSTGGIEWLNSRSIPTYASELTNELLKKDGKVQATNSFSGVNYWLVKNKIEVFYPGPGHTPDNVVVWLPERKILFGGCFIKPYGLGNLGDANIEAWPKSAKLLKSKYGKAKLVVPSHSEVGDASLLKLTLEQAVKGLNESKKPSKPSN
# Beta-lactamase [10] = molecular target: Beta-lactamase (Salmonella choleraesuis (strain SC-B67), UniProt Q5J463); assay: Epi-absorbance-based counterscreen for selective VIM-2 inhibitors: dose response biochemical high throughput screening assay to identify inhibitors of TEM-1 serine-beta-lactamase.
# Beta-lactamase (Salmonella choleraesuis (strain SC-B67), UniProt Q5J463), sequence (Q5J463 whole entry): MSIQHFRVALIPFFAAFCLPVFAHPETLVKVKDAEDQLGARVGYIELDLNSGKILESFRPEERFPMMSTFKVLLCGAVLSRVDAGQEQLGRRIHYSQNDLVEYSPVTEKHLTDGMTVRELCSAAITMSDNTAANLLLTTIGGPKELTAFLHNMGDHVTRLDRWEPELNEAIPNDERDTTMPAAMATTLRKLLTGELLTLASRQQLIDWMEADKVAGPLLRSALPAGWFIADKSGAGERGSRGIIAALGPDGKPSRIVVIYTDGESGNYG
# Beta-lactamase [11] = molecular target: T4, Beta-lactamase; assay: IMP-1 metallo-beta-lactamase inhibitors, dose response, selectivity assay for VIM-2 inhibitor project, biochemical, epi-absorbance (AID 1920)
# Beta-galactosidase = Beta-galactosidase (Escherichia coli, UniProt Q8VNN2); assay: Dose response counterscreen for EBI2 assay utilizing the enzyme, b-galactosidase.; type: functional
# Large T antigen = Large T antigen (Simian virus 40, UniProt P03070); type: functional, Betapolyomavirus macacae;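 note: Confirmatory-stage PubChem screen for compounds that inhibit SV40 T antigen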
# Large T antigen, sequence (P03070 whole entry): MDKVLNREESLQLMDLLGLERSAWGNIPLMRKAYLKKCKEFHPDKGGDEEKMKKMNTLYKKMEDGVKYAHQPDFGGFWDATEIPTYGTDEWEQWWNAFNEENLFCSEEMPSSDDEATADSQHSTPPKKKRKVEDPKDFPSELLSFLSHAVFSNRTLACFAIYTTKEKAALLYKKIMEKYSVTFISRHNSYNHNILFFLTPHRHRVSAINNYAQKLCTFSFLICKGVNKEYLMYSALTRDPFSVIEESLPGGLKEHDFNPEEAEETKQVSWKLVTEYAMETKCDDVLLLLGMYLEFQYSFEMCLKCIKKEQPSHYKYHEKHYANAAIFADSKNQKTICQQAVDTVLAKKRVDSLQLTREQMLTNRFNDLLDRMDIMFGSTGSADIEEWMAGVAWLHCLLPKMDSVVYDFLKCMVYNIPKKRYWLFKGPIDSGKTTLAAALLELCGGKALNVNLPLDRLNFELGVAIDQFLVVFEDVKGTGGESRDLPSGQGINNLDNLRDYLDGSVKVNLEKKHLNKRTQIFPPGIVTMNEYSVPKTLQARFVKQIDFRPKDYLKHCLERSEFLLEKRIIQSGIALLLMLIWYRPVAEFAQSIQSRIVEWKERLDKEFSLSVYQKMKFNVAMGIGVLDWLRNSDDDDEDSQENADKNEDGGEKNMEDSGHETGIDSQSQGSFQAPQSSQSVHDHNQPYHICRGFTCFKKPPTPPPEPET
# [12] = HeLa cell cytotoxicity, dose response, cytotoxicity control for MgcRacGAP inhibitor project (AID 624300); type: functional
# INS1 = assay: beta cell apoptosis inhibitors, cytokine rescue, dose response, luminescence, retest (AID 449756); type: functional, cell-based; details: Rattus norvegicus;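 note: cell death triggered by IL-1 beta plus TNF-alpha plus IFN-gamma mixture; protective hits raise ATP signal compared with cytokine alone wells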
# [13] = molecular target: Matrix metalloproteinase-14 (Homo sapiens, UniProt P50281); assay: Dose Response confirmation of uHTS hits for a small molecule inhibitors of MT1-MMP activation in a fluorescence assay set 2.; type: functional
# Protein Wnt-3a = Protein Wnt-3a (Mus musculus, UniProt P27467); assay: Wnt3a-driven reporter signaling inhibition, dose response, selectivity assay for Gli-SUFU antagonist project, Wnt-LIGHT cells, luminescence (AID 651570); type: functional; details: read-out: IC50_Mean;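 note: Wnt-LIGHT reporter cells stimulated with conditioned medium from Wnt3a-producing cells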
# Protein Wnt-3a, sequence (P27467 whole entry): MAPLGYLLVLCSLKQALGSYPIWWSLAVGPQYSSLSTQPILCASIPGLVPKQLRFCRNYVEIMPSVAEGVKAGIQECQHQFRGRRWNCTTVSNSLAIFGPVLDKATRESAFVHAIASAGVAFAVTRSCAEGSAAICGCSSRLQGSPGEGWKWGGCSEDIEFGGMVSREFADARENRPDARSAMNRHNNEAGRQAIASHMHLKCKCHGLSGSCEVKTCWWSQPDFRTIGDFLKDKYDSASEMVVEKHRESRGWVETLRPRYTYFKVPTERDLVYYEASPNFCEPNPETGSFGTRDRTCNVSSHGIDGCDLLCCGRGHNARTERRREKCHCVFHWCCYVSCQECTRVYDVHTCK
# [14] = molecular target: T5, Rac GTPase-activating protein 1 (Homo sapiens, UniProt Q9H0H5); assay: MgcRacGAP GTPase-activating activity inhibitors, confirmation, biochemical, ADP Hunter fluorescence, primary and confirmatory (AID 624330); type: functional
# T5 sequence (Q9H0H5 whole entry): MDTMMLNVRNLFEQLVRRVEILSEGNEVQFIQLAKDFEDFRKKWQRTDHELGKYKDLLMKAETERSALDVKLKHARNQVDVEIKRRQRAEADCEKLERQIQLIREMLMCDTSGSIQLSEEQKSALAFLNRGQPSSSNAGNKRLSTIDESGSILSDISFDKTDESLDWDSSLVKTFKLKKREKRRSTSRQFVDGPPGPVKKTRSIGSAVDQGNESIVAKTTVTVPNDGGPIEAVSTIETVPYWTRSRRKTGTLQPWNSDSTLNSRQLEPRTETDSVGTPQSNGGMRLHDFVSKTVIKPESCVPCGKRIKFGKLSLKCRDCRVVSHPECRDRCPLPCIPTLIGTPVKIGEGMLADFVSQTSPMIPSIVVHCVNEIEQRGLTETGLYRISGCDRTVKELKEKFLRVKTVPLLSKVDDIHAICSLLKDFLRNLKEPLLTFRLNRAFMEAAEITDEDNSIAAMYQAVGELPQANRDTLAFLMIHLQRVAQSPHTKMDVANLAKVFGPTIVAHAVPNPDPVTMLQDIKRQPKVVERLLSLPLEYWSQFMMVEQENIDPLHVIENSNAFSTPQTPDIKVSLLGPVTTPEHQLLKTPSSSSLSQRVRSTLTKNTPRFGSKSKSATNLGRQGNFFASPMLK
# [15] = NIH/3T3 fibroblast cytotoxicity, dose response, cytotoxicity control for T. cruzi growth inhibitor project, cell-based, cherry-pick samples, set 2 (AID 651817); type: functional; details: NIH3T3
# [16] = molecular target: T6, High affinity choline transporter 1 (Homo sapiens, UniProt Q9GZV3); assay: CHT choline uptake inhibitors, dose response, cell-based, HEK-293 hCHT, [3H]-choline uptake (AID 652177); type: functional
# T6 sequence (Q9GZV3 whole entry): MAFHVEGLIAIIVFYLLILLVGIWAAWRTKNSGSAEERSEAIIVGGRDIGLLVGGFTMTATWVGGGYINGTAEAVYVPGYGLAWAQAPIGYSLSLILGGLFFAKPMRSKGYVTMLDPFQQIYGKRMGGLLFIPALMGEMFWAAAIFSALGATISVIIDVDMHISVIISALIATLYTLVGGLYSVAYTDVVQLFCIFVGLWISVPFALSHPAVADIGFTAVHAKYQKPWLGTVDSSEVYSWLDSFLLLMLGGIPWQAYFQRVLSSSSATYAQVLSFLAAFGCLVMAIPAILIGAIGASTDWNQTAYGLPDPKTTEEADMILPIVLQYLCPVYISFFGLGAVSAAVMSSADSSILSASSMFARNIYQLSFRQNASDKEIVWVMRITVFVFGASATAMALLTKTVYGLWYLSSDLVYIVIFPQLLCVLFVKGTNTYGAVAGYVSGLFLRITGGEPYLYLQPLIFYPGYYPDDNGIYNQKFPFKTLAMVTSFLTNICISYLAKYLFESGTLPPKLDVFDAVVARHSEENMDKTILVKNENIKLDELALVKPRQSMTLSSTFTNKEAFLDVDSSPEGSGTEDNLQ
# [17] = Late stage assay provider results from the probe development effort to identify inhibitors of the Plasmodium falciparum M17 Leucine Aminopeptidase (M17LAP): radiolabel-based cell-based dose response assay to identify compounds that inhibit P. falciparum growth in RBCs Set 2.; type: functional
# [18] = A Cell-Based Confirmatory Screen for Compounds that Inhibit VEEV, TC-83 (7).; type: functional
# [19] = MITF Orthogonal Assay: SK-MEL-5 CTG Assay Measured in Cell-Based System Using Plate Reader - 2084-02_Inhibitor_Dose_DryPowder_Activity_Set7.; type: functional
# [20] = TRPM1 promoter luciferase reporter signal decrease, dose response, MITF inhibitor project, cell-based, SK-MEL-5, dry powder, set 8 (AID 624430); type: functional
# [21] = MITF: Counter assay: A375 proliferation Measured in Cell-Based System Using Plate Reader - 2084-03_Inhibitor_Dose_DryPowder_Activity_Set8.; type: functional; details: A-375
# [22] = YAP1 pathway inhibition via CTGF transcript levels, dose response, cell-based, DLD1 colon cancer, RT-qPCR, cherry-pick (AID 1053122); type: functional; details: Cancer cell lines
# Dual specificity protein phosphatase 3, sequence (P51452 whole entry, the tested form may be a part): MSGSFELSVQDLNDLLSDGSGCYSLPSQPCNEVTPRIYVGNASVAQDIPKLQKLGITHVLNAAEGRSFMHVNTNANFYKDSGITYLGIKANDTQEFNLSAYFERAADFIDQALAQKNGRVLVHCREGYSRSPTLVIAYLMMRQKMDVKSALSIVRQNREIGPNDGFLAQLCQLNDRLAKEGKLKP
smiles,measurement,setting,value
NC(=NOC(=O)c1cccc2ccccc12)c1cccc([N+](=O)[O-])c1,IC50,[1],5.16 µM (active)
same,IC50,[2],20.9 µM (inactive)
same,IC50,[3],5.9 µM (active)
same,IC50,[4],29.7 µM (inactive)
O=C1C2=[N+]([O-])C3CCCCC3[N+]([O-])=C2c2ccccc21 (stereo not drawn),IC50,[5],9.46 µM (active)
same,AC50,[6],6.38 µM (active)
same,EC50,Protein RecA,9.54 µM (active)
same,IC50,[7],2.98 µM (active)
CC(C)(C)OC(=O)NCCCC[C@H](NC(=O)c1[nH]cnc1C(=O)Nc1ccc(CNC(=O)OC(C)(C)C)cc1)C(=O)OC(C)(C)C,AC50,Paired box protein Pax-8,4.41 µM (active)
same,AC50,[8],7.72 µM (active)
Cc1cccc(C(=O)Nc2nnc(SCC(=O)NCc3ccco3)s2)c1,IC50,Beta-lactamase [9],> 59.6 µM (inactive)
same,IC50,Beta-lactamase [10],> 59.6 µM (inactive)
same,IC50,Beta-lactamase [11],> 59.6 µM (inactive)
O=C(COc1ccc(Cl)cc1)N1CCN(Cc2ccc([N+](=O)[O-])cc2)CC1,IC50,Beta-galactosidase,> 80 µM (inactive)
CN1/C(=C\C=N\NC(=O)c2ccc(O)cc2)C(C)(C)c2ccccc21,IC50,Large T antigen,20.5 µM (active)
same,CC50,[12],100 µM (active)
same,AC50,INS1,5.43 µM (active)
same,IC50,[13],31.1 µM (inactive)
same,IC50,Protein Wnt-3a,15.4 µM (active)
same,IC50,[14],60.3 µM (active)
C[C@@H]1CN([C@H](C)CO)C(=O)c2cccc(NC(=O)c3ccncc3)c2O[C@H]1CN(C)Cc1ccc(-c2ccccc2)cc1,AC50,[15],42 µM (inactive)
COc1ccc(C(=O)NCc2cc(C(C)C)no2)cc1OCCN1CCCCC1,IC50,[16],0.76 µM (active)
CCCOc1ccc(CC(=O)NO)cc1,IC50,[17],8.6 µM (active)
CN(c1ccc(OCc2ccccc2)cc1)c1nc(=O)c2cccnc2s1,IC50,[18],2.33 µM (active)
CCN1CCN(C2=C(Nc3ccc(Cl)c(Cl)c3)C(=O)c3ccccc3C2=O)CC1,AC50,[19],9.55 µM (active)
same,AC50,[20],10.8 µM (active)
same,AC50,[21],21.1 µM (active)
C[C@H]1CN([C@@H](C)CO)C(=O)c2cccc(NC(=O)c3nc4ccccc4s3)c2O[C@@H]1CN(C)C(=O)Nc1ccc2c(c1)OCO2,AC50,[22],1.82 µM (active)

# From ChEMBL document CHEMBL1201862, “PubChem BioAssay data set” (2004)
